In publication PMC7734798 (ACS Medicinal Chemistry Letters, 2020):

How the values were obtained:
[1] = Brain stability / hydrolysis kinetics in rat brain homogenate (LC-DAD-MS/MS); format: in vitro ADME; details: 37 °C; for hydrolysis in rat brain homogenate in presence of FAAH inhibitor PF-3845: 5 μM PF-3845; for time to total disappearance of starting compound in rat brain homogenate / half-life at 1 µg/mL: absence of FAAH inhibitor; for half-life at 1 µg/mL: rat, brain homogenate
Procedure: We anticipated that, once they entered into the brain, conjugates would be hydrolyzed to the individual components by intracellular metabolic enzymes processing fatty acid derivatives (e.g., FAAH).[9],[17] Thus, the stability of 1 and 2 was evaluated by LC-DAD-MS/MS analysis of rat brain homogenate incubated with the conjugates, which was sampled at regular intervals over 1 h. To obtain initial clues on the implication of FAAH enzymes in hydrolysis, the assays were performed in the absence and presence of 5 μM FAAH inhibitor PF-3845.[9]
Velp (Usmate, Italy) RX3 vortex mixer and an Elma (Singen, Germany) Sonic T310 Trans ultrasonic […]
Chromatographic runs were obtained on an Agilent (Palo Alto, Ca, US) ZORBAX SB-C18 column (50 × 2.1 mm I.D., 3.5 µm particles), maintained at room temperature and equipped with a guard column. The mobile phase was a mixture of 0.1% aqueous formic acid (A) and acetonitrile (B), flowing at a constant rate of 0.3 mL/min. The mobile phase was set in isocratic mode with A:B ratio of (65:35, V:V); the two components of the mobile phase were filtered through Sartorius (Göttingen, Germany) membrane filters (47 mm diameter, polyamide, 0.2 µm pore size) and degassed by an ultrasonic bath. The injection volume was 10 μL. For compound purity, Total Ion Current (TIC) mode was used and DAD chromatograms were checked at 200 nm and 540 nm. For compound stability and hydrolysis studies, multiple reaction monitoring (MRM) acquisition mode was set up for both compounds 1 and 2, by flow-injection analysis directly in the MS source, in order to optimize ionization parameters and to select two exclusive MRM m/z transitions for each analyte, exploited for quantitative purposes and for qualitative confirmation, respectively.
Sample analysis and method validation […]
For compound stability and hydrolysis studies, after setting up MRM acquisition mode for both 1 and 2 as described previously, the LC-MS/MS method was coupled to an optimized sample preparation protocol to be applied to biological matrices, namely rat plasma and rat brain homogenate. Briefly, for both matrices, 1-mL sample was brought to 37±0.5°C by means of a thermostatted water bath.
Then, 50µL of analyte working solution was added to the matrix sample in order to obtain a final […]
concentration of 1 µg/mL. […]
plasma) and hydrolysis (in brain homogenate). Then, at regular intervals (5, 10, 15, 20, 25, 30, 45, 60 min) a 50-µL aliquot was sampled from the vial, added with 50 µL of ice-cold ACN and centrifuged for 5 min at 4500 rpm at 5°C. The resulting supernatant was subjected to an original miniaturized extraction procedure, based on microextraction by packed sorbent (MEPS), in order to purify the samples from potential interfering signals deriving from the matrices. The solution obtained after MEPS procedure was directly injected into the LC-MS/MS system under the optimized conditions previously described. Compound quantitation was obtained by integrating peak areas obtained from sample analysis and by interpolation on the linearity curve of each analyte. All analyses were carried out in triplicate and results were then expressed as % of remaining compound with respect to that assessed at t0 (100%), plotted against the defined time points.
In order to be applied for stability and hydrolysis studies, the MEPS-LC-MS/MS method was fully validated on both plasma and brain homogenate samples fortified with known amounts of compounds 1 and 2, pretreated and analyzed right after the addition of analyte working solutions. Method validation was performed according to the main international guidelines [ICH Harmonised Tripartite Guideline. Validation of Analytical Procedures: Text and Methodology Q2(R1); International Conference on Harmonisation of Technical] in terms of linearity (including limit of detection, LOD and limit of quantitation, LOQ), precision, accuracy, extraction yield and matrix effect.

[2] = test system: Olig2; experiment: Oli-Neu proliferation marker Olig2 expression (Western blot); format: cell-based, mouse; details: Oli-Neu cells, 5 μM, 48 h
Excerpt: OPC proliferation and migration to the CNS injury site as well as their differentiation are critical steps toward remyelination in MS. HDAC activity plays a crucial role in OPC proliferation/differentiation; therefore, HDAC modulation is widely considered a promising therapeutic target for MS.[30] […] Therefore, we tested the effect of our compounds on OPC proliferation and differentiation, through cell counting, measure of filaments, and analysis of proliferation/differentiation markers (Figure 7).
Oli-Neu cells were grown in SATO medium (DMEM medium, 2 mM glutamine, 10 μg/ml insulin, 5.5 μg/ml transferrin, 38.72 nM sodium selenite, 100 µM putrescine, 520 nM L-thyroxine (T4), 500 nM triiodo-L-thyronine (T3), 200 nM progesterone, 25 μg/ml of gentamycin) supplemented with 1% heat-inactivated horse serum (HS) in a humidified, 5% CO2 incubator at 37°C. Cell culture medium and all chemicals were from Sigma-Aldrich, except for insulin-transferrin-sodium selenite 100X supplement (Life Technologies Corporation). Cells were plated on 96 well plates, previously coated with 10 μg/mL poly-L-lysine (Sigma-Aldrich; 10 μg/ml) at the density of 2.5 x 10 4/0.2 mL medium/well and treated with increasing concentrations of the compounds (0.5, 1, 5 and 10 μM).
After 24 hours, the viability was evaluated through the MTT assay.
Oli-Neu cells proliferation and differentiation assay
48 hours, for cell counting and measure of filaments, 5 random images for each condition were acquired with an Eclipse TS100 (Nikon) microscope using a 10X objective. Cells number and filament length were measured with Fiji ImageJ2 software. After 48 hours for proliferation and 72 hours of treatment for differentiation analysis, cells were lysed in ice-cold lysis buffer (50 mM Tris-HCl pH 7.4, 1% SDS, 0.05% protease inhibitor cocktail; all from Sigma-Aldrich) and protein content was determined by using the Lowry method. […]

## CC/C=C\C/C=C\C/C=C\CCCCCCCC(=O)NCCNC(=O)C(CCC)CCC [compound 1]
[1]
  hydrolysis in rat brain homogenate in presence of FAAH inhibitor PF-3845: blocks the hydrolysis of both 1 and 2 to a large extent
  time to total disappearance of starting compound in rat brain homogenate: ≤ 1 h
  half-life at 1 µg/mL: ~23 min
[2]
  expression of Olig2, marker of OPCs proliferation: marked decrease

## CC/C=C\C/C=C\C/C=C\CCCCCCCC(=O)NCCOC(=O)C(CCC)CCC [compound 2]
[1]
  hydrolysis in rat brain homogenate in presence of FAAH inhibitor PF-3845: blocks the hydrolysis of both 1 and 2 to a large extent
  time to total disappearance of starting compound in rat brain homogenate: ≤ 1 h
  half-life at 1 µg/mL: ~16 min
[2]
  expression of Olig2, marker of OPCs proliferation: marked decrease
